Each structure is given as a SMILES string.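 The compound was tested at five concentrations on cells cultured in 96-well plates, with a 48-hour exposure period. GI50 = concentration required for 50% inhibition of growth. The concentration for full growth arrest is given as TGI.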

Drawing on PubChem BioAssay (NCI), this text covers GI50 and TGI for 14 molecules.

Test in all cases: growth of human tumour cells (NCI), 48 h
In experiment [1] the test system is MDA-MB-435.
In experiment [2] the test system is SNB-19 CNS.
Experiment [3] deals with CCRF-CEM leukemia.
Experiment [4] has as its system OVCAR-3 ovarian.
Experiment [5] deals with HCT-116 colon.
Experiment [6] deals with MDA-MB-231 breast.
For experiment [7], the system named is SF-268 CNS.
Experiment [8] relates to IGROV1 ovarian.
The subject of experiment [9] is OVCAR-4 ovarian.
Experiment [10] has as its system HT29 colon.

Turning to `O=C(Nc1ccc(N2CCNCC2)cc1)c1[nH]ncc1Nc1ncnc2sc3c(c12)CCC3`, the GI50 is 0.199 µM in experiment [1]; 0.274 µM in [2]; 0.222 µM in experiment [3]; 0.256 µM in experiment [4]; 0.109 µM in experiment [5]; 0.333 µM in experiment [6]. In addition, the GI50 in experiment [7] is 0.89 µM; in experiment [8], 0.125 µM; in [9], 0.321 µM. The TGI in [1] is 1.77 µM; in [2] it was 1.69 µM; in experiment [3], 1.13 µM; in [4], 1.67 µM; in [5], 0.297 µM; in experiment [6] it was 2.04 µM. Besides, the TGI stood at 2.76 µM in experiment [7], 1.38 µM in [8] and 2.26 µM in experiment [9].

Take `COc1cc2c(cc1OC)C(=O)/C(=C/c1cccc(OCC(=O)c3ccccc3)c1)C2`: the GI50 in experiment [1] was 23.1 µM; in [2] it was 25.7 µM; in experiment [3], 2.17 µM; in [4], 17.1 µM; in [10], 12.9 µM; in experiment [5] it was 5.44 µM. Further, the GI50 in experiment [6] is 23.8 µM; in experiment [7], 15.3 µM; in [8], 5.79 µM; in experiment [9], 30.4 µM. In addition, the TGI in experiment [1] is > 100 µM; in experiment [2] it was > 100 µM; in [3] it was 7.31 µM; in [4], > 100 µM; in experiment [10], > 100 µM; in experiment [5], > 100 µM. Moreover, the TGI is > 100 µM in experiment [6], 63.3 µM in experiment [7], > 100 µM in [8] and > 100 µM in experiment [9].

For the molecule `O=C(Oc1ccc(Cl)cc1Cl)c1ccccc1Nc1ccnc(C(F)(F)F)c1`, the GI50 is 2.91 µM in [1]; 3.54 µM in [3]; 11 µM in [4]; 2.24 µM in [6]; 3.11 µM in experiment [7]; 17.8 µM in experiment [8]. The TGI in [1] was 8.1 µM; in experiment [3], > 100 µM; in [4], 24.9 µM; in experiment [6] it was 7.92 µM; in experiment [7] it was 13.6 µM; in experiment [8] it was > 100 µM.

`CCOC(=O)c1c2c(n3ccc(NC(=O)CCN4CCCC4)cc13)C(=O)c1ncccc1C2=O`: the GI50 in experiment [1] was 1.53 µM; in experiment [2] it was 1.17 µM; in experiment [3], 1.88 µM; in [4], 1.48 µM; in experiment [10], 1.57 µM; in [5], 0.175 µM. For the same molecule, the GI50 is 1.84 µM in experiment [6], 0.794 µM in experiment [7] and 1.01 µM in [8]. For the same molecule, the TGI was 3.08 µM in experiment [1]; 3.54 µM in [2]; 5.41 µM in experiment [3]; 3.12 µM in experiment [4]; 3.46 µM in experiment [10]; 1.94 µM in experiment [5]. The TGI in [6] stood at 3.83 µM; in experiment [7] it was 2.65 µM; in experiment [8] it was 3.27 µM.

Consider `Cc1ccc(-[n+]2c3cc(N)c(C)cc3nc3cc(C)c(Nc4ccccc4)cc32)cc1`, for which the GI50 in experiment [1] was 0.0814 µM; in experiment [3] it was 0.223 µM; in experiment [10], 0.0377 µM; in experiment [8] it was 0.166 µM; in experiment [9], 0.333 µM. The TGI in experiment [1] was 0.358 µM; in experiment [3], > 100 µM; in [10], 0.345 µM; in [8] it was 1.54 µM; in experiment [9] it was 1.59 µM.

Turning to `N=C1C(c2nc(-c3ccc(Br)cc3)cs2)=C(O)CN1Cc1cccnc1`, the GI50 is 15.5 µM in [1]; 40.1 µM in [2]; 4.28 µM in [3]; 14 µM in [4]; 13.4 µM in experiment [10]; 1.75 µM in experiment [5]. Moreover, the values for the GI50 in [6], in experiment [7] and in [9] were 15.9 µM, 31.6 µM and 25.1 µM, respectively. Moreover, the TGI in [1] is > 100 µM; in experiment [2], > 100 µM; in experiment [3], 65.8 µM; in experiment [4] it was 42 µM; in experiment [10] it was > 100 µM; in [5], 24 µM. The TGI in [6] was 43.5 µM; in [7], > 100 µM; in experiment [9], > 100 µM.

For `N#Cc1c(Sc2ccccc2N)cccc1Sc1ccccc1N`, the GI50 in experiment [1] was 43.2 µM; in experiment [2], 97.5 µM; in experiment [3] it was 20.9 µM; in experiment [10] it was 63.4 µM; in experiment [5], 71.9 µM; in experiment [6], 49.8 µM. Besides, the GI50 is 38.4 µM in experiment [7], 50.9 µM in experiment [8] and 42.1 µM in [9].

Regarding `O=c1oc2cc(OS(=O)(=O)c3ccc(F)cc3)ccc2c2c1CCCCC2`, the GI50 in experiment [1] is > 100 µM; in [2], > 100 µM; in [4], > 100 µM; in experiment [10], 1.04 µM; in [5] it was 6.24 µM; in experiment [6] it was > 100 µM. The GI50 in experiment [7] is > 100 µM; in [8], > 100 µM; in experiment [9], 5.76 µM. The TGI in experiment [1], in experiment [2], in experiment [4], in experiment [10], in [5] and in experiment [6] was > 100 µM throughout. Besides, the TGI in experiment [7], in experiment [8] and in experiment [9] was > 100 µM throughout.

Consider `O=[N+]([O-])c1ccc(C(c2c[nH]c3ccccc23)c2c[nH]c3ccccc23)cc1`, for which the TGI in [1] amounted to 32.3 µM; in experiment [2], 35.8 µM; in [3] it was 1.17 µM; in experiment [4], 8.31 µM; in experiment [10], 31.8 µM; in experiment [6], 29.3 µM. In addition, the TGI turned out to be 22.5 µM in experiment [7] and 28.2 µM in [9].

Regarding `COc1cc(C2CC(c3ccc(C)cc3)=NN2C=O)ccc1Oc1ccnc2cc(Cl)ccc12` (stereo not drawn), the GI50 in [1] was > 50 µM; in experiment [2] it was 9.53 µM; in experiment [3] it was > 50 µM; in [4], > 50 µM; in [10] it was > 50 µM; in experiment [5], 2.5 µM. The GI50 was 4.23 µM in [6], 11.3 µM in [7] and 24.8 µM in experiment [8]. In addition, the TGI in experiment [1], in [2], in [3], in [4], in [10] and in experiment [5] was > 50 µM each time. Moreover, the TGI in experiment [6] was 43.8 µM; in [7], > 50 µM; in experiment [8], > 50 µM.

On to `N#CCC1COc2ccccc2O1` (stereo not drawn), for which the TGI in experiment [1], in experiment [2], in experiment [3], in [10], in experiment [5] and in [6] was > 10 µM in each case. Moreover, the TGI in experiment [7], in [8] and in experiment [9] was > 10 µM throughout.

On to `CC(=O)n1c(COS(C)(=O)=O)nc2ccccc21`, for which the TGI in experiment [1], in experiment [2], in experiment [4], in experiment [10], in experiment [5] and in experiment [6] was > 100 µM each time. In addition, the TGI in experiment [7], in [8] and in [9] was > 100 µM throughout.

Consider `Cc1c2c(nn1-c1ccc(S(=O)(=O)NC(=S)Nc3ccccc3)cc1)-c1ccccc1CC2`, for which the GI50 in [1] was 14.4 µM; in [2] it was > 50 µM; in experiment [4], 36.8 µM; in experiment [10] it was > 50 µM; in experiment [5], 18.2 µM; in experiment [6], > 50 µM. Also, the GI50 in experiment [7] was 18.7 µM; in experiment [8], 20.6 µM; in experiment [9], > 50 µM. Further, the TGI in [1], in experiment [2], in [4], in [10], in experiment [5] and in experiment [6] was > 50 µM throughout. Further, the TGI in experiment [7], in experiment [8] and in [9] was > 50 µM throughout.

For `COc1cc2c3c(n(C)c(=O)c2cc1OC)-c1cc2c(cc1/C3=C\CCCCCN)OCO2`, the GI50 in [1] was 4.09 µM; in [2] it was 2.49 µM; in experiment [3] it was 0.0121 µM; in [4] it was 2.79 µM; in experiment [10], 1.17 µM; in experiment [6], 2.5 µM. The GI50 was 3.92 µM in experiment [7], < 0.01 µM in experiment [8] and 17.4 µM in experiment [9]. Also, the TGI in [1] was > 90.6 µM; in experiment [2], 76.5 µM; in experiment [3] it was 0.0641 µM; in [4], 22.1 µM; in [10], > 100 µM; in experiment [6], 12.9 µM. For the same molecule, the values for the TGI in [7], in experiment [8] and in experiment [9] were 47.9 µM, 1.34 µM and > 94.1 µM, respectively.
